In patent US20210254272A1, “TEXTILES HAVING ANTIMICROBIAL PROPERTIES” (Livinguard AG, priority 2015, published 2021):

System: E. coli (ATCC 25922)
Assay: AATCC Test Method 100-2012 antibacterial activity of the treated textile, after 25 washes and 12 abrasion cycles, contact time 60 minutes
Assay type: cell-based
Settings: for Log reduction of antimicrobial performance: 1% o.w.f; for Log reduction of antimicrobial performance in 100 GSM cotton fabric / Log reduction of antimicrobial performance in 300 GSM cotton fabric: 2 min
Experimental: The antibacterial activity of the textile was tested in accordance with AATCC Test Method 100-2012. Prior to the test, the fabric was cut into coupons of 2×4 inches and washed separately 25 times, and exposed to 12 abrasion cycles, as per US EPA protocol 90072PA4 (described further below). The tests were made against E. coli (ATCC 25922). Contact time was 60 minutes, after inoculating with 10^8 CFU per coupon.

[1] = exhaust 80° C., 60 min, curing 180° C., dosage 0.1% o.w.f
[2] = exhaust 80° C., 60 min, curing 180° C., dosage 0.2% o.w.f
[3] = exhaust 80° C., 60 min, curing 180° C., dosage 0.5% o.w.f
[4] = exhaust 80° C., 60 min, curing 180° C., dosage 0.8% o.w.f
[5] = exhaust 80° C., 60 min, curing 180° C., dosage 1.0% o.w.f

polyglucosamine [chitosan] was tested, and the “Log reduction of antimicrobial performance of each active ingredient” value (“Log reduction … of each active ingredient” below) (exhaust 60° C., solution dosage 1% o.w.f, process time 60 min) was 1.4 Log, the “Log reduction … of each active ingredient” value (exhaust 60° C., solution dosage 1% o.w.f, process time 90 min) was 1.5 Log and the “Log reduction … of each active ingredient” value (exhaust 60° C., solution dosage 1% o.w.f, process time 120 min) was 1.6 Log. For the same substance, the “Log reduction … of each active ingredient” value (exhaust 60° C., solution dosage 1% o.w.f, process time 180 min) was 1.7 Log, the “Log reduction … of each active ingredient” value (exhaust 60° C., solution dosage 1% o.w.f, process time 240 min) was 1.65 Log and the “Log reduction of antimicrobial performance” value (exhaust 80° C., 60 min, curing 170° C., curing dwell time 0.5 min) was 0.3 Log. For the same substance, the “Log reduction of antimicrobial performance” value (exhaust 80° C., 60 min, curing 170° C., curing dwell time 1.0 min) was 0.7 Log, the “Log reduction of antimicrobial performance” value (exhaust 80° C., 60 min, curing 170° C., curing dwell time 1.5 min) was 0.7 Log and the “Log reduction of antimicrobial performance” value (exhaust 80° C., 60 min, curing 170° C., curing dwell time 2.0 min) was 1.4 Log. For the same substance, the “Log reduction of antimicrobial performance” value (exhaust 80° C., 60 min, curing 170° C., curing dwell time 2.5 min) was 1.3 Log, the “Log reduction of antimicrobial performance” value (exhaust 80° C., 60 min, curing 170° C., curing dwell time 3.0 min) was 0.64 Log and the “Log reduction of antimicrobial performance” value (exhaust 80° C., 60 min, curing 180° C., curing dwell time 0.5 min) was 1.4 Log. For the same substance, the “Log reduction of antimicrobial performance” value (exhaust 80° C., 60 min, curing 180° C., curing dwell time 1.0 min) was 1.5 Log, the “Log reduction of antimicrobial performance” value (exhaust 80° C., 60 min, curing 180° C., curing dwell time 1.5 min) was 1.6 Log and the “Log reduction of antimicrobial performance” value (exhaust 80° C., 60 min, curing 180° C., curing dwell time 2.0 min) was 3.5 Log. The “Log reduction of antimicrobial performance” value (exhaust 80° C., 60 min, curing 180° C., curing dwell time 2.5 min) was 3.5 Log, the “Log reduction of antimicrobial performance” value (exhaust 80° C., 60 min, curing 180° C., curing dwell time 3.0 min) was 3.4 Log and the “Log reduction of antimicrobial performance” value (exhaust 80° C., 60 min, curing 190° C., curing dwell time 0.5 min) was 0.3 Log. For the same substance, the “Log reduction of antimicrobial performance” value (exhaust 80° C., 60 min, curing 190° C., curing dwell time 1.0 min) was 1.2 Log, the “Log reduction of antimicrobial performance” value (exhaust 80° C., 60 min, curing 190° C., curing dwell time 1.5 min) was 1.4 Log and the “Log reduction of antimicrobial performance” value (exhaust 80° C., 60 min, curing 190° C., curing dwell time 2.0 min) was 2.66 Log. The “Log reduction of antimicrobial performance” value (exhaust 80° C., 60 min, curing 190° C., curing dwell time 2.5 min) was 2.31 Log, the “Log reduction of antimicrobial performance” value (exhaust 80° C., 60 min, curing 190° C., curing dwell time 3.0 min) was 1.3 Log and the “Log reduction of antimicrobial performance” value (exhaust 80° C., 60 min, curing temperature 100 ° C.) was 0.16 Log. The “Log reduction of antimicrobial performance” value (exhaust 80° C., 60 min, curing temperature 120 ° C.) was 0.23 Log, the “Log reduction of antimicrobial performance” value (exhaust 80° C., 60 min, curing temperature 140 ° C.) was 0.88 Log and the “Log reduction of antimicrobial performance” value (exhaust 80° C., 60 min, curing temperature 160 ° C.) was 1.34 Log. For the same substance, the “Log reduction of antimicrobial performance” value (exhaust 80° C., 60 min, curing temperature 165 ° C.) was 1.38 Log, the “Log reduction of antimicrobial performance” value (exhaust 80° C., 60 min, curing temperature 170 ° C.) was 1.48 Log and the “Log reduction of antimicrobial performance” value (exhaust 80° C., 60 min, curing temperature 175 ° C.) was 2.41 Log. The “Log reduction of antimicrobial performance” value (exhaust 80° C., 60 min, curing temperature 180 ° C.) was 2.67 Log, the “Log reduction of antimicrobial performance” value (exhaust 80° C., 60 min, curing temperature 185 ° C.) was 2.68 Log and the “Log reduction of antimicrobial performance” value (exhaust 80° C., 60 min, curing temperature 190 ° C.) was 2.69 Log. The “Log reduction of antimicrobial performance” value (exhaust 80° C., 60 min, curing temperature 195 ° C.) was 2.71 Log, the “Log reduction of antimicrobial performance in 100 GSM cotton fabric” value (shortened to “Log reduction … in 100 GSM cotton fabric”) [1] was 0.63 Log and the “Log reduction of antimicrobial performance in 300 GSM cotton fabric” value (“Log reduction … in 300 GSM cotton fabric” below) [1] was 0.65 Log. The “Log reduction … in 100 GSM cotton fabric” value [2] was 1.37 Log, the “Log reduction … in 300 GSM cotton fabric” value [2] was 1.38 Log and the “Log reduction … in 100 GSM cotton fabric” value [3] was 1.91 Log. For the same substance, the “Log reduction … in 300 GSM cotton fabric” value [3] was 1.91 Log, the “Log reduction … in 100 GSM cotton fabric” value [4] was 2.21 Log and the “Log reduction … in 300 GSM cotton fabric” value [4] was 2.21 Log. The “Log reduction … in 100 GSM cotton fabric” value [5] was 2.71 Log, the “Log reduction … in 300 GSM cotton fabric” value [5] was 2.72 Log and the “Log reduction … of each active ingredient” value (exhaust 80° C., 60 min, dosage 1% o.w.f (test up to 5% o.w.f)) was 2.45 Log. For the same substance, the “Log reduction … of each active ingredient” value (exhaust 80° C., 60 min, dosage 2% o.w.f) was 2.46 Log, the “Log reduction … of each active ingredient” value (exhaust 80° C., 60 min, dosage 3% o.w.f) was 2.47 Log and the “Log reduction … of each active ingredient” value (exhaust 80° C., 60 min, dosage 4% o.w.f) was 2.47 Log. For the same substance, the “Log reduction … of each active ingredient” value (exhaust 80° C., 60 min, dosage 5% o.w.f) was 2.47 Log, the “Log reduction … of each active ingredient” value (exhaust 80 ° C., solution dosage 1% o.w.f, process time 10 min) was 0.67 Log and the “Log reduction … of each active ingredient” value (exhaust 80 ° C., solution dosage 1% o.w.f, process time 20 min) was 1.13 Log. The “Log reduction … of each active ingredient” value (exhaust 80 ° C., solution dosage 1% o.w.f, process time 30 min) was 1.43 Log, the “Log reduction … of each active ingredient” value (exhaust 80 ° C., solution dosage 1% o.w.f, process time 40 min) was 1.73 Log and the “Log reduction … of each active ingredient” value (exhaust 80 ° C., solution dosage 1% o.w.f, process time 50 min) was 2.45 Log. For the same substance, the “Log reduction … of each active ingredient” value (exhaust 80 ° C., solution dosage 1% o.w.f, process time 60 min) was 2.67 Log, the “Log reduction … of each active ingredient” value (exhaust 80 ° C., solution dosage 1% o.w.f, process time 70 min) was 2.68 Log and the “Log reduction … of each active ingredient” value (exhaust 80 ° C., solution dosage 1% o.w.f, process time 80 min) was 2.72 Log.
